# Results: US20250275541A1, “NEMATOSTATIC COMPOSITIONS, AND USE THEREOF IN AGRICULTURE” (AGRO INNOVATION INTERNATIONAL, priority 2019, published 2025)
# How the values were obtained:
# Meloidogyne javanica [1] = test: Mobility of Meloidogyne javanica in the soil microcosm, different carboxylic acids (Example 3); settings: Fluopyram 24 ppm (positive control), 5 h incubation
# Experimental: Juvenile nematodes of M. javanica were deposited on the surface of a column of sterile soil 2 cm thick resting on a sieve (cotton wool), 1 hour before adding the test products in order to allow them time to move in the porosity of the soil. The nematodes will be distributed randomly in the layer of soil, depending on their mobility. […] The mobile nematodes pass through the column of soil and migrate naturally into the water. The nematodes passing into the water can be counted.
# If the concentration of test product considered is inhibitory for the mobility of the nematodes in the presence of soil, the nematodes are kept in the column of soil and delayed in their migration into the water. The time for emergence of the nematodes from the column of soil is longer as the concentration of nematostatic product increases.
# The method is identical to that described in Example 1. […]
# Meloidogyne javanica [2] = test: Mobility of Meloidogyne javanica in the soil microcosm (Example 1)
# Experimental: The nematodes will be distributed randomly in the layer of soil, depending on their mobility. After adding the test products and incubating for 6 h, the column of soil and the sieve were placed in a tube containing water. The mobile nematodes pass through the column of soil and migrate naturally into the water. The nematodes passing into the water can be counted. If the concentration of test product considered is inhibitory for the mobility of the nematodes in the presence of soil, the nematodes are kept in the column of soil and delayed in their migration into the water. The time for emergence of the nematodes from the column of soil is longer as the concentration of nematostatic product increases.
# [3] = calcium formate 780 ppm alone, or with RD2 100 or 1000 ppm, 6 h incubation, kinetics over 144 h
SMILES,nematodes that had left the microcosm of the soil after 160 hours (Meloidogyne javanica [1]),"nematodes that left the microcosm at 3 days (Meloidogyne javanica [2]; at 3 days, calcium formate 780 ppm alone, or calcium formate 780 ppm + RD2 1000 ppm) [%]",nematodes affected reversibly in their mobility (Meloidogyne javanica [2]; [3]) [%],nematodes not affected in their mobility (Meloidogyne javanica [2]; [3]) [%],"nematodes affected irreversibly at 6 days (Meloidogyne javanica [2]; calcium formate 780 ppm alone, or with RD2 100 or 1000 ppm, at 6 days) [%]"
O=C(NCCc1ncc(C(F)(F)F)cc1Cl)c1ccccc1C(F)(F)F [Fluopyram],no nematode had left the microcosm,,,,
O=C[O-].O=C[O-].[Ca+2] [calcium formate],,92,62,14,24
